This note sets out measurements from patent US9895390B2, “Methods and assays for combination treatment of cancer” (CHILDREN'S MEDICAL CENTER CORPORATION, priority 2012, dated 2018).

Test [1] deals with human NSCLC lines. Briefly: Cytotox assays: chemotherapy dose response curves with or without EZH2 inhibitor, 4 days. The test is classed as cell-based. The note with it: for IC50: various NSCLC cell lines, 4 days, read-out: etoposide IC50. As for the experimental part: Cell lines were dissociated, counted and plated at 5000 cells per well in flat bottom opaque tissue culture treated 96 well plates (CytoOne). Edge wells were filled with PBS. The following day, 2× drug diluted in media was added to each well such that the well then contained 100 ul media with 1× drug concentration. After 4 days, Cell Titer Glo™ (Promega) was added and luminescence was read on a BioTec plate reader to determine relative cell number in each well. Data were averaged for triplicate or quadruplicate technical replicates, normalized to the untreated wells and input into GraphPad Prism software to extrapolate IC50.
Cell lines were dissociated, counted and plated at 5000 cells per well in flat bottom opaque tissue culture treated 96 well plates (CytoOne). Edge wells were filled with PBS. The following day, 2× drug diluted in media was added to each well such that the well then contained 100 ul media with 1× drug concentration at the following doses: etoposide; 0, 0.1, 1, 3, 5, 7, 10, 50, 100, 500 μM, cisplatin; 0, 0.1, 1, 5, 10, 30, 70, 100, 500 μM, or doxorubicin; 0, 0.01, 0.1, 0.5, 1, 3, 5, 7, 10, 50 μM. […] Data were averaged for triplicate or quadruplicate technical replicates and normalized to the untreated wells. Results from three or four independent biological replicate experiments were input into […] PRISM™ software to extrapolate IC50 and s.e.m. of IC50 for a given cell line.

In test [2] the test system is BRG1 mutant and BRG1 wild-type cell lines. Put plainly: Gefitinib dose response curves, 4 days. Format: cell-based, human. The following applies: data not shown.
The test system of test [3] is EZH2 and H3K27me3. Briefly: Western Blot for EZH2 and H3K27me3 on whole cell extracts. Format: cell-based, human. The following applies: 10 μM GSK126, 7 days in culture. As for the experimental part: For Western blotting, 25 μg of protein extract per sample was denatured with heat and reducing agents, separated on a 4-12% acrylimide gel and transferred to nitrocellulose. Antibodies used for Western blotting were: EZH2 (Cell Signalling), β-actin (AbCAM) and H3K27me3 (Upstate).
Whole cell extracts were made in RIPA buffer (0.5% Deoxycholate, 1% IGEPAL-CA630, 0.1% sodium dodecyl sulfate, 150 mM NaCL, 50 mM Tris-8.1), lysates were cleared by centrifugation, and protein concentrations were quantified with the Pierce BCA Protein Assay Kit (Thermo). For Western blotting, 25 μg of protein extract per sample was denatured with heat and reducing agents, separated on a 4-12% acrylimide gel (BioRad) and transferred to nitrocellulose (GE Healthcare). Antibodies used for Western blotting were: EZH2 (clone D2C9; Cell Signaling; 1:200), Histone H3 (polyclonal; AbCAM ab1791; 1:2000) and H3K27me3 (polyclonal; Millipore 07-449; 1:1000) all incubated overnight at 4° C. Secondary antibody, anti-rabbit-HRP (Santa Cruz sc-2313; 1:5,000), was incubated for 1 hour at room temperature. After washing, chemi-luminescence was visualized with Western Lightning Plus-ECL (PerkinElmer) and exposure onto KODAK BioMax XAR™ film.
For orientation: Immunoblotting shows a protein as a band on a membrane.

Read-outs that look alike come from different tables or passages of the source.

What is called IC50 is the concentration that inhibits the measured activity by half.

With `COc1cc([C@@H]2c3cc4c(cc3[C@@H](O[C@@H]3O[C@@H]5CO[C@@H](C)O[C@H]5[C@H](O)[C@H]3O)[C@H]3COC(=O)[C@H]23)OCO4)cc(OC)c1O` [etoposide], the IC50 in test [1] (Homo sapiens, 96 h, approximate) is ~10 µM; in test [1] (approximate), ~5 µM.

In the case of `COc1cc2ncnc(Nc3ccc(F)c(Cl)c3)c2cc1OCCCN1CCOCC1` [gefitinib], in test [2], the “gefitinib sensitivity of BRG1 mutant vs BRG1 wild-type cell lines” value is reported as “slightly more sensitive”.

`CC[C@H](C)n1cc(C)c2c(C(=O)NCc3c(C)cc(C)[nH]c3=O)cc(-c3ccc(N4CCNCC4)nc3)cc21` [GSK126]: in test [1] (10 μM GSK126), the “etoposide dose response: classes of GSK126 treated cell lines” value is “same TopoII inhibitor-sensitized and -protected classes”. Besides, in test [3], the EZH2 levels result is recorded as “remained unchanged” and the H3K27me3 levels result is listed as “marked decrease”.

With `N.N.[Cl][Pt][Cl]` [cisplatin], in test [1] (NSCLC cell lines, approximate), the “cisplatin IC30” value is ~5 µM.
